Results as given in patent US20100151001A1, “ETHYNYLATED HETERODINUCLEOSIDE PHOSPHATE ANALOGS, METHOD FOR THE PRODUCTION THEREOF, AND USE THEREOF” (Eberhard Karls Universitat Tubingen, priority 2007, published 2010).

Assays:
HOP-92 = assay: cells; assay type: cell-based; settings: for TGI: HOP-92 (lung), 100% growth inhibition, 48 h, SRB; for CC50: Homo sapiens, HOP-92, 48 h, read-out: LC50
Description: (§1) Tumor cell lines, whose 100% growth inhibition (TGI) by the compounds according to the invention is determined at various concentrations, serve as the test system. The toxicity (LC50) of the compound to these cells is also determined. On day 0, a series of microtiter plates is inoculated with the tumor cells and preincubated for 24 h. Then the compound according to the invention is added to the cells in five in each case 10-fold diluted concentration, starting from the highest soluble concentration. After incubation for 48 hours, the cells are fixed in situ, washed and dried. Then sulforhodamine B (SRB), a pink dye that binds to the fixed cells, is added and the cells are washed again. The dye that remains represents the adherent cell mass and is determined spectroscopically. The automatically acquired data are evaluated by computer and lead, for the compound according to the invention 5-fluoro-2′-deoxyuridylyl-(5′-5′)-3′-C-ethynylcytidine and 5-fluoro-2′-deoxyuridylyl-(3′-5′)-3′-C-ethynylcytidine, to the following results, the data for the 3′-5′-coupled dimer being shown in bold above the data for the 5′-5′-coupled isomer.

SK-MEL-2 = assay: cells; assay type: cell-based; settings: for LC50: Homo sapiens, SK-MEL-2, 48 h, read-out: LC50; for TGI: SK-MEL-2 (melanoma), 100% growth inhibition, 48 h, SRB
Description: as §1

IGROV1 = assay: cells; assay type: cell-based; settings: for CC50: Homo sapiens, IGROV-1, 48 h, read-out: LC50; for TGI: IGROV1 (ovaries), 100% growth inhibition, 48 h, SRB
Description: as §1

MCF7 = assay: cells; assay type: cell-based; settings: for CC50: Homo sapiens, MCF7, 48 h, read-out: LC50; for TGI: MCF7 (breast), 100% growth inhibition, 48 h, SRB
Description: as §1

CAK-1 = assay: cells; assay type: cell-based; settings: 48 h; for CC50: read-out: LC50; for TGI: CAK-1 (kidneys), 100% growth inhibition, SRB
Description: as §1

LOX IMVI = assay: cells; assay type: cell-based; settings: 48 h; for CC50: Homo sapiens, LOX IMVI, read-out: LC50; for TGI: LOX IMVI (melanoma), 100% growth inhibition, SRB
Description: as §1

BT-549 = assay: cells; assay type: cell-based; settings: for TGI: BT-549 (breast), 100% growth inhibition, 48 h, SRB; for CC50: Homo sapiens, BT-549, 48 h, read-out: LC50
Description: as §1

ACHN = assay: cells; assay type: cell-based; settings: 48 h; for TGI: ACHN (kidneys), 100% growth inhibition, SRB; for CC50: Homo sapiens, ACHN, read-out: LC50
Description: as §1

SF-295 = assay: cells; assay type: cell-based; settings: for CC50: Homo sapiens, SF-295, 48 h, read-out: LC50; for TGI: SF-295 (central nervous system), 100% growth inhibition, 48 h, SRB
Description: as §1

NCI-H522 = assay: cells; assay type: cell-based; settings: for CC50: Homo sapiens, NCI-H522, 48 h, read-out: LC50; for TGI: NCI-H522 (lung), 100% growth inhibition, 48 h, SRB
Description: as §1

SF-539 = assay: cells; assay type: cell-based; settings: for CC50: Homo sapiens, SF-539, 48 h, read-out: LC50; for TGI: SF-539 (central nervous system), 100% growth inhibition, 48 h, SRB
Description: as §1

HCT-15 = assay: cells; assay type: cell-based; settings: for TGI: HCT-15 (intestine), 100% growth inhibition, 48 h, SRB; for CC50: Homo sapiens, HCT-15, 48 h, read-out: LC50
Description: as §1

SNB-75 = assay: cells; assay type: cell-based; settings: for CC50: Homo sapiens, SNB-75, 48 h, read-out: LC50; for TGI: SNB-75 (central nervous system), 100% growth inhibition, 48 h, SRB
Description: as §1

HCC-2998 = assay: cells; assay type: cell-based; settings: for TGI: HCC-2998 (intestine), 100% growth inhibition, 48 h, SRB; for CC50: Homo sapiens, HCC 2998, 48 h, read-out: LC50
Description: as §1

A549/ATCC = assay: cells; assay type: cell-based; settings: for TGI: A549/ATCC (lung), 100% growth inhibition, 48 h incubation, SRB; for CC50: Homo sapiens, A549, 48 h, read-out: LC50
Description: as §1

T-47D = assay: cells; assay type: cell-based; settings: 48 h; for CC50: Homo sapiens, T47D, read-out: LC50; for TGI: T-47D (breast), 100% growth inhibition, SRB
Description: as §1

DU-145 = assay: cells; assay type: cell-based; settings: for TGI: DU-145 (prostate), 100% growth inhibition, 48 h, SRB; for CC50: Homo sapiens, DU-145, 48 h, read-out: LC50
Description: as §1

EKVX = assay: cells; assay type: cell-based; settings: 48 h; for TGI: EKVX (lung), 100% growth inhibition, SRB; for CC50: Homo sapiens, EKVX, read-out: LC50
Description: as §1

Tumor cell lines = assay: Cytostatic action in vitro, comparison over the tumor cell lines; assay type: cell-based
Description: as §1

[1] = tested on: LOX IMVI melanoma xenograft
Description: A cell suspension of 5×10^6 tumor cells (LOX IMVI, cell line 01/A/1) was implanted subcutaneously in female athymic nude mice (Animal Production Area, Frederick, Md.). Intraperitoneal administration of the active substance began 3 days after tumor implantation. For this, the active substance was administered dissolved in 10% DMSO/common salt solution plus Tween® 80.
Administration was carried out in each case over a four-day period and comprised a total of 5 treatments. The tests were evaluated by determining the T/C values.
For a model based on solid tumors, a T/C value of 40 must be reached to be regarded as effective.

C#CC1(O)C(COP(=O)(O)OC2C[C@H](n3cc(F)c(=O)[nH]c3=O)O[C@@H]2CO)OC(n2ccc(N)nc2=O)C1O (stereo in doubt) [Example 1, 5-fluoro-2′-deoxyuridylyl-(3′-5′)-3′-C-ethynylcytidine]
TGI (HOP-92): 2.18 µM | CC50 (HOP-92): > 100 µM | LC50 (SK-MEL-2): 69.5 µM | TGI (SK-MEL-2): 0.424 µM | CC50 (IGROV1): > 100 µM | TGI (IGROV1): 12.9 µM | CC50 (MCF7): > 100 µM | TGI (MCF7): 0.137 µM | CC50 (CAK-1): > 100 µM | TGI (CAK-1): 0.0829 µM | CC50 (LOX IMVI): 91.5 µM | TGI (LOX IMVI): 0.348 µM | TGI (BT-549): 0.346 µM | CC50 (BT-549): 6.39 µM | TGI (ACHN): 1.52 µM | CC50 (ACHN): > 100 µM | CC50 (SF-295): > 100 µM | TGI (SF-295): 1.07 µM | CC50 (NCI-H522): > 100 µM | TGI (NCI-H522): 1.15 µM | CC50 (SF-539): 32.2 µM | TGI (SF-539): 0.167 µM | TGI (HCT-15): 15.1 µM | CC50 (HCT-15): > 100 µM | CC50 (SNB-75): 4.72 µM | TGI (SNB-75): 0.882 µM | TGI (HCC-2998): 0.109 µM | CC50 (HCC-2998): 1.73 µM | TGI (A549/ATCC): 29.6 µM | CC50 (A549/ATCC): > 100 µM | CC50 (T-47D): > 100 µM | TGI (T-47D): 26.7 µM | TGI (DU-145): 0.44 µM | CC50 (DU-145): > 100 µM | TGI (EKVX): 6.37 µM | CC50 (EKVX): > 100 µM | effectiveness compared with the 5′-5′-coupled duplex active substance (example 2) (Tumor cell lines; in vitro, tumor cell lines of the table): much more effective | TGI values lower compared with the 5′-5′-coupled isomer (Tumor cell lines; often, over the tumor cell lines): up to 1000 times | optimum T/C value ([1]; 11.2 mg/kg/injection intraperitoneal, 5 treatments, day 13, nude mice): 16 | maximum T/C value ([1]; 16.75 mg/kg/injection intraperitoneal, 5 treatments, day 11 after tumor implantation, nude mice): 7 | in vivo activity in the tumor model ([1]; LOX IMVI xenograft, overall conclusion): significant in vivo activity

C#CC1(O)C(COP(=O)(O)OC[C@H]2O[C@@H](n3cc(F)c(=O)[nH]c3=O)CC2O)OC(n2ccc(N)nc2=O)C1O (stereo in doubt) [Example 2, 5-fluoro-2′-deoxyuridylyl-(5′-5′)-3′-C-ethynylcytidine]
TGI (HOP-92): 21.5 µM | CC50 (HOP-92): > 100 µM | LC50 (SK-MEL-2): 76.4 µM | TGI (SK-MEL-2): 5.78 µM | CC50 (IGROV1): > 100 µM | TGI (IGROV1): >100 µM | CC50 (MCF7): > 100 µM | TGI (MCF7): >100 µM | CC50 (CAK-1): > 100 µM | TGI (CAK-1): >100 µM | CC50 (LOX IMVI): ≥ 100 µM | TGI (LOX IMVI): 100 µM | TGI (BT-549): 11.6 µM | CC50 (BT-549): > 100 µM | TGI (ACHN): >100 µM | CC50 (ACHN): > 100 µM | CC50 (SF-295): > 100 µM | TGI (SF-295): 20.6 µM | CC50 (NCI-H522): > 100 µM | TGI (NCI-H522): >100 µM | CC50 (SF-539): > 100 µM | TGI (SF-539): 2.01 µM | TGI (HCT-15): >100 µM | CC50 (HCT-15): > 100 µM | CC50 (SNB-75): > 100 µM | TGI (SNB-75): >100 µM | TGI (HCC-2998): 2.95 µM | CC50 (HCC-2998): 57.2 µM | TGI (A549/ATCC): >100 µM | CC50 (A549/ATCC): > 100 µM | CC50 (T-47D): > 100 µM | TGI (T-47D): >100 µM | TGI (DU-145): >100 µM | CC50 (DU-145): > 100 µM | TGI (EKVX): >100 µM | CC50 (EKVX): > 100 µM
